# How the values were obtained:
# [1] = tested on: T cell (CD3 gated) in human PBMCs; assay: atezolizumab addition experiment, PD-L1/PD-1 expression on T cell by FCM; format: cell-based; conditions: 3 days
# Protocol: (§1) As for an experiment of atezolizumab addition, 0 to 200 μM P4 or COR, 1 μM TSST-1, and 100 μg/mL atezolizumab were added to PBMCs, and the resultant was cultured for 72 hours at 37° C. in 5% CO2, followed by analysis by FCM.
# [2] = tested on: B cell (CD19 gated) in human PBMCs; assay: atezolizumab addition experiment, PD-L1/PD-1 expression on B cell by FCM; format: cell-based; conditions: 3 days
# Protocol: as §1
# [3] = tested on: humanized mouse; assay: PD-L1/PD-1 expression in humanized mouse in vivo after atezolizumab administration; conditions: data not shown
# [4] = tested on: human breast cancer cell line MDA-MB-231; assay: cancer-bearing CMV-NOG-hIL-4-Tg mouse with MDA-MB-231 and human PBMCs transplanted; format: in vivo
# Protocol: 5×10^6 MDA-MB231 was subcutaneously administered to a ventral portion of a 6- to 7-week-old NOG-hIL-4-Tg mouse (a hIL-4 concentration in blood of 100 pg/mL or more). Diameters of the tumor along the ventral and in a direction at a right angle to the ventral were measured with a caliper every 2 days from one week after the administration, and the product thereof was defined as the size of the tumor. Two weeks after the tumor transplantation, 5×10^6 PBMCs were intravenously transplanted to the cancer-bearing mice and non-cancer-bearing mice as a control group. The measurement of the tumor diameters was similarly continued after the PBMC transplantation. The non-cancer bearing mice were divided into two groups, and PBS or atezolizumab ([…], 3 times (every 10 days)) was administered to each group. The cancer-bearing mice were divided into three groups, and PBS, atezolizumab ([…], 3 times (every 10 days)), or liposome (amount equivalent to 225 μg of atezolizumab and 40 μg of P4/dose, 6 times (every 5 days)) was administered to each group.
# After 4 weeks, the mice were anesthetized to collect heparinized blood, and were euthanized. From various lymph tissues collected, cells were collected, and erythrocytes were removed therefrom with a hemolysis buffer to prepare a cell suspension. The number of cells therein was counted, and a human leukocyte fraction was subjected to flowcytometry (FCM) analysis. A tumor tissue was used for immunohistochemical staining.
# For human immunocytochemistry, the same antibodies as those used in Example 1 were used. Cells were reacted with an appropriate amount of each of various, fluorescent-labeled antibodies for 15 minutes at 4° C., and washed with PBS containing 1% BSA. The resultant cells were analyzed with FACS Fortessa or Verse (manufactured by BD Bioscience). Living cells were gated, and human CD45-positive cells were further gated to obtain a human leukocyte fraction. These cells were further divided with a cell surface marker to obtain lymphocyte subsets. For data analysis, FlowJo (BD) was used.
# A tissue of the mouse was immobilized with 20% formalin (manufactured by Wako Pure Chemical Industries, Ltd.), and embedded in paraffin. The resultant paraffin block was sliced, and the resultant was subjected to deparaffinization, mounted on a slide glass, and stained with hematoxylin and eosin (HE). In immunohistochemical staining with an anti-human CD8 antibody, the slide was subjected to a heat treatment at 120° C. for 20 minutes, and subjected to an endogenous peroxidase treatment through a reaction with 0.3% H2O2/MetOH at room temperature for 10 minutes. Thereafter, the resultant was blocked with 1% goat serum, and anti-human CD8 (manufactured by Dako) was added thereto, followed by a reaction at 25° C. for 60 minutes. The resultant slide was washed 3 times with 0.01 M PBS for 5 minutes, followed by a reaction at 25° C. for 60 minutes with simple stain MAX-PO (manufactured by Nichirei Biosciences Inc.). The resultant slide was washed 3 times with 0.01 M PBS for 5 minutes, and colored with a DAB solution. The resultant was washed with running water for 3 minutes, and stained with hematoxylin, followed by dehydration and penetration/encapsulation.
# [5] = tested on: BeWo; assay: proliferating ability of cell line cultured with P4 or COR; format: cell-based, human; conditions: 200 μM or less, cultured 10 days
# Protocol: (§2) Each of human choriocarcinoma cell line JEG-3, BeWo, and embryonic kidney cell line HEK293 was cultured for 10 days at 37° C. in 5% CO2 in a 10% Fetal Calf Serum (FCS)-containing DMEM (Gibuco) to which water-soluble progesterone (P4; water soluble) (Sigma) or cortisol (COR) (Sigma) was added in various concentrations. Each of mouse myeloma cell line P3-X63-Ag8-U1 (P3X) and mouse lymphoma cell line A20 was cultured for 3 days at 37° C. in 5% CO2 in 10% FCS-containing RPMI 1640 to which P4 or COR was added in various concentrations. Proliferation of the cells was evaluated by measuring the number of the cells.
# [6] = tested on: HEK293; assay: as above; format: cell-based, human; conditions: 200 μM or less, cultured 10 days
# Protocol: as §2
# [7] = tested on: JEG-3; assay: as above; format: cell-based, human; conditions: 200 μM or less, cultured 10 days
# Protocol: as §2
# [8] = tested on: A20; assay: as above; format: cell-based, mouse; conditions: 2 μM or less, cultured 3 days
# Protocol: as §2
# [9] = tested on: P3-X63-Ag8-U1 (P3X); assay: as above; format: cell-based, mouse; conditions: 2 μM or less, cultured 3 days
# Protocol: as §2
# [10] = tested on: Human peripheral blood mononuclear cells (PBMCs); assay: number of cells of TSST-1-stimulated PBMCs cultured with P4 or COR; format: cell-based; conditions: PBMCs + TSST-1; 3 days
# Protocol: (§3) The PBMCs (final concentration: 1×10^6/mL) were cultured for 3 days at 37° C. in 5% CO2 in 10% FCS-containing RPMI 1640 to which P4 or COR was added in various concentrations with stimulation by 1 μg/mL of toxic shock syndrome toxin-1 (TSST-1). These cells were collected, washed with PBS, and dispensed into a Fisher tube in an amount of 1×10^6 cells/tube. For analysis of a human cell surface marker, a fluorescent-labeled anti-human monoclonal antibody (mAbs) was used. The cells were stained with the mAbs, a reaction was performed for 15 minutes at 4° C., and the resultant was washed with PBS containing 1% (w/v) BSA. Then, the resultant was analyzed by FACS Fortessa, or FACS Verse (BD Bioscience, Franklin Lakes, NJ). In the analysis, a leukocyte gated or lymphocyte gated cells were further gated by expression of human CD45, and then the analysis was performed. A culture supernatant was collected, and 25 μL thereof was dispensed to quantitatively determine cytokine with Legend Plex™ kit from BioLegend.
# [11] = tested on: CD4 and CD8 T cells in PBMCs; assay: FCM analysis of activation/exhaustion markers (CD25, PD-1) on T cells of TSST-1-stimulated PBMCs; format: cell-based, human; conditions: 20 to 200 μM
# Protocol: as §3
# [12] = tested on: B cell in PBMCs; assay: FCM analysis of PD-1 on B cells of TSST-1-stimulated PBMCs; format: cell-based, human; conditions: TSST-1 and P4/COR stimulation; data not shown
# Protocol: as §3
# [13] = tested on: CD4 and CD8 T cells in PBMCs; assay: restimulation experiment (transient vs continuous P4/COR), PD-1/PD-L1 on T cells; format: cell-based, human; conditions: TSST-1 3 days
# Protocol: (§4) In a restimulation experiment, PBMCs were cultured for 6 hours at 37° C. in 5% CO2 in 10% FCS-containing RPMI 1640 to which 200 μM P4 or COR was added. These cells were washed, adjusted to a final concentration of 1×10^6/mL, and cultured again in the presence or absence of 200 μM P4 or COR with stimulation by 1 μM TSST-1. After 72 hours, the resultant cells were collected to be analyzed by FCM.
# [14] = tested on: B cell in PBMCs; assay: restimulation experiment (transient vs continuous P4/COR), PD-L1 on B cells; format: cell-based, human; conditions: addition of 200 μM; TSST-1 3 days
# Protocol: as §4
# [15] = tested on: Hu-PBMC-NOG (GVHD onset model); assay: GVHD onset model: human PBMCs transplanted to NOG mouse, P4 or COR administered subcutaneously; format: in vivo; conditions: 2 mg/head subcutaneously twice a week, 4 weeks
# Protocol: In the analysis using the GVHD model, PBMCs prepared in the same manner as described above were washed with PBS, and 2.5×10^6 PBMCs were intravenously transplanted to each 8- to 9-week-old NOG mouse. […] At the same time as the administration, the weight was measured. After 4 weeks, the mouse was anesthetized to collect heart blood, and euthanized. From various lymphoid organs excised, human cells were prepared, hemolyzed, and then subjected to FCM. Besides, the lung and the liver were excised, and immunohistochemically stained as follows. A tissue of the mouse was immobilized with 20% formalin (Wako Pure Chemical Industries, Ltd.), and embedded in paraffin. The obtained paraffin block was sliced, and the resultant was subjected to deparaffinization, mounted on a slide glass, and stained with hematoxylin and eosin (HE). In immunohistochemical staining with an anti-human CD45 antibody, the slide was subjected to a heat treatment at 97° C. for 20 minutes, and subjected to an endogenous peroxidase treatment through a reaction with 0.3% H2O2/MetOH at room temperature for 10 minutes. Thereafter, the resultant was blocked with 1% goat serum, and anti-human CD45 (Dako) was added thereto, followed by a reaction overnight at 4° C. The resultant slide was washed 3 times with 0.01 M PBS for 5 minutes, and colored with a DAB solution. The resultant was washed with running water for 3 minutes, and stained with hematoxylin, followed by dehydration and penetration/encapsulation.
# [16] = tested on: PBMC-NOG-hIL-4-Tg mouse; assay: transplantation of P4/COR-cultured PBMCs to NOG-hIL-4-Tg mouse immunized with CH401MAP; format: in vivo; conditions: PBMCs cultured with 200 μM for 6 hours before transplantation
# [17] = atezolizumab 450 pg/head/dose 3 times, liposome equivalent to 225 μg atezolizumab and 40 μg P4/dose 6 times, 4 weeks
compound,measurement,setting,value
atezolizumab,PD-1 expression in a T cell,[1],increased
same,PD-L1 expression in a T cell,[1],reduced
same,PD-1 expression in a B cell,[2],increased
same,PD-1 expression,[3],tended to be increased
same,PD-L1 expression,[3],tended to be reduced
same,engraftment of a B cell (CD19-positive) in spleen cells,[4]; [17],reduced
same,ratio of a T cell (CD3-positive) in spleen cells,[4]; [17],increased
same,ratio of the CD8-positive killer T cell in spleen cells,[4]; [17],increased
same,increase of the tumor (tumor diameter),[4]; compared with PBS administration group,suppressed
same,human (killer) T cell infiltration into the tumor mass,"[4]; histochemical staining (anti-human CD8), liposome compared with atezolizumab alone",obviously observed
"C[C@]12CCC(=O)C=C1CC[C@@H]1[C@@H]2[C@@H](O)C[C@@]2(C)[C@H]1CC[C@]2(O)C(=O)CO [COR, cortisol]",cell proliferating ability,[5],minimally changed
same,cell proliferating ability,[6],minimally changed
same,cell proliferating ability,[7],minimally changed
same,proliferation,[8],almost completely suppressed
same,proliferation,[9],almost completely suppressed
same,number of cells vs control group,[10],substantially no difference
same,PD-1 expression on T cells,[11]; day 3,not suppressed depending on the COR concentration
same,activation marker-negative (non-activated) T cells,[11]; day 3,not largely increased
same,number of activated cells,"[11]; day 3, data not shown",reduced
same,ratio of later-phase activated (CD25-positive PD-1-positive) T cells,"[11]; CD4 and CD8 T cells, day 3",did not depend on the COR concentration
same,PD-1 expression on B cell,[12],not increased
same,ratio of later-phase activated (PD-1/PD-L1-positive) cells,"[13]; CD4 and CD8 T cells, continuously added, 200 μM",not suppressed as much as that obtained by P4 addition
same,CD8 T cell activation vs control group,"[13]; transiently added (200 μM 6 hours, washed)",significantly suppressed
same,PD-L1 expression in B cell,[14],tended to reduce PD-L1 expression
same,GVHD symptoms,[15],reduced GVHD symptoms
same,lymphocyte engraftment,[15],lymphocyte engraftment failure was also caused
same,lymphocytes,[15],reduced lymphocytes
same,engraftment ability of transplanted PBMCs,[16]; analysis after 4 weeks,low engraftment ability
same,specific antibody production (CH401MAP),[16]; plasma after 4 weeks,suppressed
same,PD-L1 expression in a B cell,"[2]; 0 to 200 μM, TSST-1",showed PD-L1 expression
